Key:
[1] = test system: dorsal ITC neurons; experiment: STDP-induced DA-dependent LTD (DA-LTD) in dorsal ITC neurons, amygdala slice whole-cell recordings; format: cell-based, mice; details: for induction of LTD at the dorsal ITC by receptor agonist: STDP protocol, agonist in place of DA; for effect on DA-LTD: STDP protocol in presence of DA, antagonists in optimal concentrations selective for each receptor, naive mice
[2] = test system: dorsal ITC neurons; experiment: STDP in dorsal ITC neurons of naive slices with or without GABAA receptor blockade; format: cell-based, mice; details: +4- and +6-ms interval delays; not in absence of picrotoxin
Procedure: To compare mPSCs without or after STDP, KCl-based and K-gluconate-based internal solutions were used for recording mIPSCs and mEPSCs, respectively. K-gluconate based solution was also used to record EPSCs and IPSCs evoked by interleaved stimulation. Series resistance (10-30 MΩ) was monitored throughout all experiments. mEPSCs were recorded at −70 mV holding potential in the presence of 1 μM tetrodotoxin (TTX) and 100 μM picrotoxin (Tocris, UK) while mIPSCs were measured at −70 mV in the presence of 1 μM TTX, 25 μM NBQX, and 50 μM 2-amino-5-phosphonovaleric acid (APV, Tocris). Miniature PSCs were analyzed with MiniAnalysis (Synaptosoft, Fort Lee, N.J.) or Clampfit 10.1 software (Molecular Devices). For PSC recordings with interleaved stimulation, the holding potential was briefly (˜40 ms) changed from −70 mV to +10 mV to reach the reversal potential of EPSC for isolation of putative IPSCs. For STDP experiments, stimulus intensity was adjusted to elicit EPSPs displaying 25%-30% of the maximum amplitudes. After obtaining stable baseline recording, 80 presynaptic stimuli were delivered at 2 Hz via metal stimulating electrode placed in LA while paired with action potentials induced by injection of depolarizing current to postsynaptic neurons. Quantal contents were estimated by obtaining the inverse square of the coefficient of variation (1/CV^2). […]. […]

[3] = test system: dorsal ITC neurons; experiment: STDP-induced LTD in dorsal ITC in amygdala slices after weak fear conditioning; format: cell-based, mice; details: for induction of LTD after weak fear conditioning: wild-type mice, slices after weak fear conditioning, drug applied to slices
Procedure: (§1) Fear conditioning trainings were conducted in context A within sound-attenuating conditions (Panlab, Spain). Tone CS (conditioned stimulus) was delivered with a speaker while electric foot shock US (unconditioned stimulus) was applied through a floor grid attached to a shock generator (Panlab). The chambers were also equipped with infrared webcams connected to a personal computer to store animal behavior. Mice were placed in the context A for 2 minutes of acclimation and were then presented with auditory tone (CS: 3 kHz, 80 dB for 30 sec) that were co-terminated with electric foot shocks (US: 0.4 or 0.8 mA for 0.5 sec). Total 8 CS-US pairs were presented in pseudorandom intertrial intervals (varied from 60 to 120 sec). 24 hours after fear conditioning, mice were placed in context B to assess the recall of fear memory by being re-exposed to CS, but without US for 2 minutes.
To compare mPSCs without or after STDP, KCl-based and K-gluconate-based internal solutions were used for recording mIPSCs and mEPSCs, respectively. K-gluconate based solution was also used to record EPSCs and IPSCs evoked by interleaved stimulation. Series resistance (10-30 MΩ) was monitored throughout all experiments. mEPSCs were recorded at −70 mV holding potential in the presence of 1 μM tetrodotoxin (TTX) and 100 μM picrotoxin (Tocris, UK) while mIPSCs were measured at −70 mV in the presence of 1 μM TTX, 25 μM NBQX, and 50 μM 2-amino-5-phosphonovaleric acid (APV, Tocris). Miniature PSCs were analyzed with MiniAnalysis (Synaptosoft, Fort Lee, N.J.) or Clampfit 10.1 software (Molecular Devices). For PSC recordings with interleaved stimulation, the holding potential was briefly (˜40 ms) changed from −70 mV to +10 mV to reach the reversal potential of EPSC for isolation of putative IPSCs. For STDP experiments, stimulus intensity was adjusted to elicit EPSPs displaying 25%-30% of the maximum amplitudes. […]

[4] = biological target: T1, D4R at the dorsal ITC (Mus musculus, UniProt P51436); experiment: Weak fear conditioning after bilateral drug infusion into the dorsal ITC (freezing); format: in vivo, mice; details: 500 nM, 0.5 μl bilaterally into dorsal ITC 20 minutes before fear conditioning; vs vehicle
T1 construct: endogenous in cells; host or cells: neurons of the mouse brain in vivo (dorsal ITC of the amygdala); mice from Jackson Laboratory
T1 sequence (P51436 1-387): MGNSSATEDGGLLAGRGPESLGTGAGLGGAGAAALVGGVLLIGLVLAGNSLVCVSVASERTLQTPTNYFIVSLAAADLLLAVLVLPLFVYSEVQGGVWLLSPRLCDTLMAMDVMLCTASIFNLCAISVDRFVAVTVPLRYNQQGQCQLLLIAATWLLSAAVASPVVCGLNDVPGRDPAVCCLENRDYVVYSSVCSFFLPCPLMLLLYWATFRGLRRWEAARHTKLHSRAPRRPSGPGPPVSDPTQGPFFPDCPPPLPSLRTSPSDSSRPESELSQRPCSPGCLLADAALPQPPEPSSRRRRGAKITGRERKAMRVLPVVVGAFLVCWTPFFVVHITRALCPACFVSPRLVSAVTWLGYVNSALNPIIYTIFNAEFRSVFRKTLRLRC
Procedure: Guide cannulae were implanted bilaterally (26 gauge, Plastics One, Roanoke, Va.) aimed into the dorsal ITC areas in the coordinates, AP−1.4 mm, ML±3.2 mm, DV−4.2 mm from the bregma, and were fixed in the skull with dental cement. The cannulae remained capped with internal dummy cannulae (33 gauges, Plastics One) after surgery. Animals were individually housed and allowed to recover at least for 1 week after surgery. The mice bilaterally received 0.5 μl of either L-745870 or vehicle through the injection cannula (33 gauge, Plastics One) connected to a 10-μl Hamilton syringe for 5 minutes at a rate of 0.1 μl/min using microinfusion pump (Harvard Apparatus, Holliston, Mass.) 20 minutes before fear conditioning. L-745870 was dissolved to 500 nM in 0.9% saline just before the infusion. Mice were kept with injector cannulae for additional 5 minutes after the end of infusion and then were subjected to fear conditioning. […] The subject mice were transcardially perfused right after the last behavioral tests and analyzed for the injection loci. […]
If DA-LTD at the dorsal ITC is a synaptic mechanism that regulates neural circuits conveying fear memory, manipulation of D4R activity or synaptic plasticity at the dorsal ITC should affect fear memory. […] We injected either vehicle or L-745870 bilaterally into the dorsal ITC areas and then assessed acquisition and expression of fear memory (FIG. 5A).

[5] = test system: dorsal ITC neurons
[6] = test system: ITC neurons; experiment: Paired recording of unitary IPSCs (uIPSCs) between synaptically coupled ITC neurons
[7] = test system: mice that underwent weak fear conditioning; experiment: Corticosterone-induced PTSD-like memory impairment after weak fear conditioning (freezing); format: in vivo; details: CORT 5 mg/kg i.p.
Procedure: as §1, with “minutes. […]” for “minutes.”
To assess contextual fear memory from cue conditioned animals, the mice were placed again in context A 2 hours after termination of the first recall test and then duration of freezing was measured for 2 minutes without presentation of the auditory cue. The mice were placed in context B 2 hours after termination of the first recall test and the freezing time during presentation of the auditory cue was measured for 2 minutes.

[8] = test system: dorsal ITC neurons; experiment: Disynaptic IPSP input-output curves in dorsal ITC of CORT-treated mice; format: cell-based; details: vehicle-treated significantly increased
Procedure: To induce PTSD-like memory impairment, corticosterone (CORT, 5 mg/kg) or vehicle (saline, 0.9% NaCl) was intraperitoneally (i.p.) injected immediately after fear conditioning as previously described. The cue-conditioning group underwent weak fear conditioning with the previously-described CS-US pairing paradigm in context A and was tested for fear recall toward the cue in context B at the next day.
To obtain mechanistic insights into the LTD impairment, we constructed the input-output curves of evoked disynaptic IPSPs. […] Thus, the LTD deficit in CORT-treated mice appears to result from the impaired augmentation of inhibitory inputs to the dorsal ITC neurons.

CCCN1CCO[C@@H]2c3cc(O)ccc3OC[C@H]21 [PD-128907]
induction of LTD at the dorsal ITC by receptor agonist [1]: did not

Oc1cc2c(cc1O)C(c1ccccc1)CNCC2 (stereo not shown) [SKF-38393]
induction of LTD at the dorsal ITC by receptor agonist [1]: did not

picrotoxin
synaptic plasticity by STDP in presence of GABAA receptor antagonist [2]: LTP

CC#C[C@]1(O)CC[C@H]2[C@@H]3CCC4=CC(=O)CCC4=C3[C@@H](c3ccc(N(C)C)cc3)C[C@@]21C [RU38486]
effect on DA-LTD [1]: blocked | induction of LTD after weak fear conditioning [3]: blocked

Clc1ccc(N2CCN(Cc3c[nH]c4ncccc34)CC2)cc1 [L-745870]
effect on DA-LTD [1]: abolished DA-LTD | induction of LTD after weak fear conditioning [3]: interfered with the induction of LTD | freezing at 24 hr after weak fear conditioning [4]: significantly higher levels of freezing | freezing levels during acquisition [4]: comparable freezing levels

COc1ccccc1N1CCN(CCCCNC(=O)c2ccc(-c3ccc(C(C)=O)cc3)cc2)CC1 [GR-103691]
effect on DA-LTD [1]: did not affect DA-LTD

NCCc1ccc(O)c(O)c1 [DA, Dopamine]
induction of LTD by the STDP protocol in the presence of DA ([1]; DA 30 mM): LTD was readily induced | changes in resting membrane potentials (RMPs) and excitability ([5]; DA 30 mM, before and after application): negligible changes | synaptic transmission on bath application alone ([5]; bath application of DA alone, no STDP): did not alter synaptic transmission

Nc1nc2c(ncn2[C@@H]2O[C@H](COP(=O)(O)OP(O)(O)=S)[C@@H](O)[C@H]2O)c(=O)[nH]1 [GDPβS]
LTD-induced increment of uIPSC amplitude, infused into postsynaptic ITC neurons ([6]; GDPβS 0.5 mM in internal solution, postsynaptic neuron): not | LTD-induced increment of uIPSC amplitude, infused into presynaptic ITC neurons ([6]; GDPβS 0.5 mM in internal solution, presynaptic neuron): blocked

C[C@]12C[C@H](O)[C@H]3[C@@H](CCC4=CC(=O)CC[C@@]43C)[C@@H]1CC[C@@H]2C(=O)CO [CORT, corticosterone]
induction of LTD in dorsal ITC of CORT-treated mice ([3]; CORT 5 mg/kg i.p. after conditioning, regardless of fear conditioning): LTD could not be triggered | freezing to the context after cue conditioning only [7]: increased freezing levels | freezing to the conditioned cue 24 hr after weak fear conditioning ([7]; vs vehicle-injected, cue or context pairing): higher freezing levels | disynaptic IPSPs after weak fear conditioning [8]: not altered

Cc1cccc(C(=O)NCN2CCN(c3ccccc3C#N)CC2)c1 [PD-168077, N-([4-(2-cyanophenyl)piperazine-1-yl]methyl)-3-methylbenzamide]
induction of LTD at the dorsal ITC by receptor agonist [1]: allowed for the induction of LTD | amplitude of uIPSCs when LTD was induced ([6]; current injection to postsynaptic ITC neurons while stimulating LA in presence of PD-168077): markedly increased

OC1(c2ccc(Cl)cc2)CCN(Cc2c[nH]c3ccccc23)CC1 [L-741626]
effect on DA-LTD [1]: did not affect DA-LTD

— patent US10668061B2, “Mouse with D4R iRNA in the intercalating cell mass of the amygdala” (POSTECH ACADEMY-INDUSTRY FOUNDATION, priority 2016, dated 2020)
